Reference: patent US20220023300A1, “THERAPEUTIC AND PROPHYLACTIC METHOD FOR TUMOR TREATABLE WITH ENDOCRINE THERAPY BY COMBINED USE OF FIBROBLAST GROWTH FACTOR RECEPTOR INHIBITOR WITH ENDOCRINE THERAPY” (TAIHO PHARMACEUTICAL CO., LTD., priority 2018, published 2022)

How the values were obtained:
MDA-MB-134VI cells = test: Cell growth-inhibitory effect of combined use (T/C), CellTiter-Glo 2.0; conditions: for viability at 0.1 µM: Homo sapiens, MDA-MB-134-VI, 120 h, read-out: T/C (treated/control) cell viability
Experimental: The cell viability was measured using CellTiter-Glo 2.0 (Promega). […] The number of cells seeded was 500 cells/80 μL per well. […] After drug addition, the cells were further incubated at 37° C. and 5% CO2 for 120 hours. Experiments were carried out in triplicate (3 wells per treatment group). The cell viability was calculated by adding 100 μL of CellTiter-Glo 2.0 reagent per well, incubating at room temperature for 30 minutes, and then measuring the chemiluminescence of each well with a plate reader (EnSpire). The cell viability in the case of drug addition was calculated as a ratio with respect to the control group, which was set to 100%, according to the following formula, and the average value of the data of three wells was used for the analysis.
Cell viability (%)=(chemiluminescence in the case of drug addition)/(chemiluminescence of control group)×100

breast cancer = conditions: phase II; subpopulation of FGF pathway-amplified breast cancer patients; cited from earlier work

Compound: 4-hydroxytamoxifen
- T/C (treated/control) cell viability (MDA-MB-134VI cells; MDA-MB-134VI, drug alone at 1 μM, 120 hours): 65%

Compound: C=CC(=O)N1CC[C@H](n2nc(C#Cc3cc(OC)cc(OC)c3)c3c(N)ncnc32)C1 [compound 1, (S)-1-(3-(4-amino-3-((3,5-dimethoxyphenyl)ethynyl)-1H-pyrazolo[3,4-d]pyrimidin-1-yl)pyrrolidin-1-yl)prop-2-en-1-one]
- viability at 0.1 µM (MDA-MB-134VI cells): 35%

Compound: C[C@]12CC[C@@H]3c4ccc(O)cc4C[C@@H](CCCCCCCCC[S+]([O-])CCCC(F)(F)C(F)(F)F)[C@H]3[C@@H]1CC[C@@H]2O (stereo partly shown) [fulvestrant]
- viability at 0.1 µM (MDA-MB-134VI cells): 75%
- median value of the mean progression-free survival (PFS) (breast cancer): 5.5 months
